Data reported in a melting point compilation (Tetko et al.; mined from patent text by program, amines drawn as free bases though some values may be those of a salt).

| SMILES | melting point [°C] |
| --- | --- |
| Cn1c(=O)n(Cc2ccccc2)c(=O)c2cc(C(=O)NCc3ccc4c(c3)OCO4)ccc21 | 215 |
| Cc1conc1-c1nnc2c3ccccc3c(OCc3nnccc3C(C)(C)C)nn12 | 230 to 232 |
| CCOC(=O)n1ccc(=O)c2cnc(N3CCN(CC)CC3)nc21 | 161 |
| COc1ccc(C2CCc3c(OC(C)=O)cc(OC(C)=O)cc3O2)cc1OC(C)=O (stereo not given) | 106 to 107 |
| CSc1cc2c(cc1C(F)(F)F)N(C(=O)Nc1cccc(C(=O)Nc3cccnc3)c1)CC2 | 195 to 197 |
| NCC1Cc2cc(-c3ccc(C(F)(F)F)cc3)cc(F)c2O1 (stereo not given) | > 250 |
| CCCc1c(OCCCCCOc2ccc3ccc(OCC(=O)OCC)cc3c2CCC(=O)OCC)ccc2c1OCCC2=O | 68 to 69.5 |
| COc1ccccc1-c1[nH]nc2c1C(=O)c1c(NC(C)=O)cccc1-2 | 276 |
| CCCCN(C)c1c(-c2ccc(OC)cc2)sc2ccccc12 | 61 to 62 |
| CC(N)Oc1cccc2c1ccn2S(=O)(=O)c1ccccc1F (stereo not given) | 147 to 150 |
| C=CCN1C(C)(C)CC(O)CC1(C)C | 84 to 85 |
| Cc1ccccc1NC(=O)Nc1ccc(-c2c(CCO)sc3ncnc(N)c23)cc1 | 159 to 162 |
| O=C1NCN(c2ccccc2)C12CCCCC2 | 193 to 195 |
| CCCc1c(OCC(O)COc2ccc3c(c2CCC)OC(C(=O)O)CC3=O)ccc(C(C)=O)c1O (stereo not given) | 68 to 72 |
| COC(=O)CCCCNC(=O)c1sc2ccc(OC)cc2c1OC(C)C | 82 to 84 |
| COc1ccc(-c2nc(Sc3ccccc3F)[nH]c2-c2ccc(OC)cc2)cc1 | 195 |
| [N-]=[N+]=Nc1cc(C2COCOC2)c2occc2c1 | 102 to 104 |
| O=C(O)Cc1cccc(C(=O)c2ccc(OCc3ccc4ccccc4n3)cc2)c1 | 146 to 147 |
| CC(=O)OCCN(C(=O)CBr)c1ccc(Cl)cc1C(=O)c1ccccc1F | 84 to 88 |
| CCCCCCNC(=O)CSc1nc(Cl)cc(Nc2cccc(C)c2C)n1 | 116 to 118 |
| Cc1nc2c(O)c(CCC(=O)c3cccs3)c(C(=O)N(C)C)cn2c1C | 234 |
| O=C(O)c1ccc2oc3c(c(=O)c2c1)CCCC3=Cc1ccccc1 | 284 to 286 |
| Cc1ccc(NC(=O)c2ccc(O)c(N)c2)cc1C | 220 to 223 |
| CC(C)N=C(N=c1ccccn1CCc1ccccc1Br)NC(C)C | 125 to 128 |

| SMILES | melting point [°C] |
| --- | --- |
| CCCCC(=O)Nc1ccc(Cl)c(-n2nc(CC)n(Cc3ccc(-c4ccccc4S(=O)(=O)NC(=O)OC(C)(C)C)cc3F)c2=O)c1 | 143 to 145 |
| COc1cc(C)c(NC(=O)OC(C)(C)C)c(C)c1C | 104 to 106 |
| Cc1ncc(CN2CCCNC2=C[N+](=O)[O-])s1 | 204 to 207 |
| COC(=O)C(C)(C)Nc1ccc(OCc2ccccc2)cc1 | < 50 |
| N#Cc1ccn2c1CSC2c1cccnc1 (stereo not given) | 110 |
| CCCCCCCCCCCCCCCCCCOC1=CC(OCCCOc2ccc(C(C)(C)C)cc2)(N(CC(=O)O)CC(=O)O)CC=C1 (stereo not given) | 99 to 101 |
| COC1(Cl)C=CC=CC1Oc1c(Cl)ncnc1Cl (stereo not given) | 88 to 89 |
| CC(C)(C)c1cc(C(C)(CC(=O)NN)c2cc(C(C)(C)C)c(O)c(C(C)(C)C)c2)cc(C(C)(C)C)c1O | 172 |
| COc1ccc2ccc(N3C(=O)C4=C(SCCO4)C3=O)nc2n1 | 255 |
| CC(C)n1c(NN)nc2ccccc2c1=O | 123 to 124 |
| CCCCc1cc2ccc(C(=O)O)cc2o1 | 102 to 104 |
| Cc1c(Cc2ccc(Cl)cc2)c(=O)oc2cc(O)cc(O)c12 | 270 to 278 |
| CNc1cccc(-c2ccnc3c(C(=O)c4cccs4)cnn23)c1 | 188 to 190 |
| CC[C@H](C)[C@H](NC(=O)[C@@H]1CCCN1CC(=O)[C@H](Cc1ccccc1)NC(=O)OCc1ccccc1)C(=O)NCC(C)C | 80 to 81 |
| CC(=O)c1sc(N2CCN(Cc3ccc(C(F)(F)F)cc3)C2=O)nc1C | 141 to 142 |
| CCCCc1c(CNC(=O)OC(C)(C)C)c(CC(C)C)nc2ccc(OCc3ccccc3)cc12 | 131 to 132 |
| Cc1oc(-c2ccccc2)nc1COc1ccc(CON=C(CCCC(=O)O)c2ccccc2)cc1 | 129 to 130 |
| CC(=O)Nc1ccc(OC2SCC(O)C(O)C2O)cn1 (stereo not given) | 209 |
| C=CCN1CCC=C(c2ccc(C(C)(C)CCCCCC)cc2O)C1 | 109 to 110 |
| Cc1oc(-c2cccs2)nc1CC#N | 185 |
| Cc1cccc(Nc2cc(Cl)nc(SCC(N)=O)n2)c1C | 188 to 191 |
| Cc1oc(-c2ccccc2)nc1CCc1ccc(CCCC2SC(=O)NC2=O)cc1 (stereo not given) | 99 to 100 |
| COc1cc(Nc2c(C#N)cnc3cc(-c4ccc(CO)cc4)ccc23)c(Cl)cc1Cl | 264 to 267 |
| CC(=O)NC(=O)N1CC1C#N (stereo not given) | 139 to 142 |

| SMILES | melting point [°C] |
| --- | --- |
| O=C(OCc1ccc([N+](=O)[O-])cc1)OCc1ccc([N+](=O)[O-])cc1 | 156 to 158 |
| CCC1CC(=O)N(Cc2ccc(NS(C)(=O)=O)cc2)N=C1c1ccc(OC)c(OC2CCCC2)c1 (stereo not given) | 69 |
| COc1ccc(Cn2cnc3c(-c4ccco4)nc(N(C(C)=O)C(C)=O)nc32)cc1 | 167 to 168 |
| CCCCCCCCCCCCCCCCCCOc1cc(NC(C)=O)cc(N(CC(=O)OCc2ccccc2)CC(=O)OCc2ccccc2)c1 | 89 to 90 |
| O=C(O)CN1C[C@@H](Cc2c[nH]c3ccccc23)N(C(=O)c2cc(C(F)(F)F)cc(C(F)(F)F)c2)CC1=O | > 220 |
| CCCc1c(OCCCSc2nnc(SCC(=O)OCC)s2)ccc(C(C)=O)c1O | 71 to 72.5 |
| O=C(O)C1CCc2c(c(=O)c3cccnc3n2-c2cccc(Cl)c2)C1 (stereo not given) | 279 to 280 |
| C=CCC1(CC=C)c2cc(-c3ncncn3)ccc2-c2ccc(N(c3ccccc3)c3ccccc3)cc21 | 235 to 237 |
| COc1cc2c(cc1Nc1ncc(Cl)c(Nc3ccccc3S(=O)(=O)N3CCCC3)n1)CCN(CC(=O)N(C)C)CC2 | 67 to 74 |
| CN1C(=O)NC(=O)C1=Cc1cc(OCCCS(=O)(=O)c2ccccc2)ccc1[N+](=O)[O-] | 147 to 158 |
| NS(=O)(=O)c1ccc(SCCCO)c(C(=O)O)c1 | 204 to 206 |
| CC1=C2C(Br)CC3C4CCCC4(C)CCC3C2(C)CCC1=O (stereo not given) | 124 to 125 |
| CCOCc1cncc(-c2ccc3c(c2)nc(N)c2nc(COCC)n(CC(C)(C)O)c23)c1 | 156 |
| CNC(=S)C1(c2cccnn2)CCCS1 (stereo not given) | 199 |
| C=CCN1C(=O)NC(C)(C)C1=O | 66.2 to 68.7 |
| CCCCc1nn(-c2cccc([N+](=O)[O-])c2)c(=O)n1Cc1ccc(-c2ccccc2S(N)(=O)=O)cc1 | 73 to 76 |
| CNC(=O)CC1CCN(Cc2cnc3cc(NC(=O)c4ccc(-c5ccc(F)cc5)cc4)c(C)cc3c2)CC1 | 243 |
| FC(F)(F)c1cccc(Nc2nc(NCc3ccco3)nc(OCc3ccncc3)n2)c1 | 124 to 126 |
| Cc1cc(OCC(=O)OC(C)C)ccc1NC(=O)NC(=O)c1ccc(C#N)cc1 | 233 to 234 |
| O=C(O)c1nn(-c2ccc(Cl)cc2Cl)c2c1SCc1cc(Cl)ccc1-2 | 262 |
| Cn1nnc2c(N3CCOCC3)nc(-c3ccc(NC(=O)Nc4ccsc4)cc3)nc21 | 272 |
| Cc1ccc(CSCCC(=O)O)cc1 | 75.8 |
| CS(=O)(=O)C(=C1CN(C(c2ccccc2)c2ccccc2)C1)c1ccc(Cl)cc1 | 192 |
| Cc1ccc2c(c1)N=C(N1CCN(C)CC1)c1cc(Br)cc3ccn-2c13 | 153 to 155 |

| SMILES | melting point [°C] |
| --- | --- |
| Cc1nc(O)c(F)c(Cl)n1 | 214 to 216 |
| O=C(NCCOc1ccc(CC(Oc2ccccc2)C(=O)O)cc1)c1ccc(-c2ccccn2)cc1 (stereo not given) | 149 to 151 |
| O=C(O)Cc1cnc(Cc2ccc(NC(=O)c3ccc(C(F)(F)F)cc3)cc2)n2ccnc12 | 205 to 207 |
| O=C(O)c1cccn2c(-c3ccc(F)cc3)cnc12 | > 400 |
| O=c1c2ccc(-c3nnn[nH]3)cc2oc2ccc(-c3nnn[nH]3)cc12 | > 400 |
| CC(=NOc1cccc(C(F)(F)F)c1)c1cc(Cl)ccc1NS(=O)(=O)C(F)(F)F | 63 to 64 |
| CC(=O)NC[C@H]1CN(c2ccc(C3CCNCC3)cc2)C(=O)O1 | 146 to 148 |
| CNC1([C@@H]2CCN(c3cc(N)c4c(=O)c(C(=O)O)cn([C@@H]5C[C@@H]5F)c4c3C)C2)CC1 | 129 to 131 |
| Cc1cc2c(cc1N(C)C=O)N1CCN=C1S2 | 164 |
| CNC(=O)c1cccc(NC(=O)Cc2ccc(F)cc2)c1 | 155 to 156 |
| Cc1cc2nc3[nH]c4ccc(Br)cc4c3nc2cc1C | 319 to 322 |
| Clc1ccc(-c2cc(C3CCNCC3)n[nH]2)cc1 | 174 to 176 |
| O=C1Nc2ccc([N+](=O)[O-])cc2C2(c3ccccc3)OCCN12 (stereo not given) | 275 to 276 |
| CC[C@H](C)[C@H](NC(=O)[C@H](C)N(C(C)=O)C1CCCCC1)C(=O)N[C@@H](Cc1ccc2ccccc2c1)[C@@H](O)[C@@H](O)CC(C)C | 192 to 194 |
| COCCOC(=O)CS(=O)C(C)c1ccc(-c2ccccc2F)cc1 (stereo not given) | 65 to 67 |
| Cc1noc(NS(=O)(=O)c2ccc(NCC(=O)O)cc2-c2ccc(CC(C)C)cc2)c1C | 73 to 78 |
| CCc1ccc(S(C)(=O)=O)c(C(=O)c2ccc(F)cc2)c1 | 145 to 147 |
| OC(CC1CCN(Cc2ccccc2)CC1)c1ccc(F)cc1 (stereo not given) | 84 to 86 |
| CN1c2ccc(Cl)cc2C(c2ccccc2[N+](=O)[O-])=Nc2cccnc21 | 165 to 166 |
| CC1(C(F)(F)F)CC(=O)CC(=O)C1 | 150 to 152 |
| COC(=O)C1=C(C)NC(C)=C(c2nc(CN(C)Cc3ccccc3)no2)C1c1cccc([N+](=O)[O-])c1 (stereo not given) | 127 to 128 |
| COCOc1ccc2c(N)noc2c1 | 88 to 89 |
| CN1C(=O)CN=C(c2ccccc2F)c2cc(C#N)ccc21 | 177 |
